According to US8524897B2, “Crystalline oxazine derivative” (Novartis AG, priority 2011, dated 2013):

What was measured:
[1] = Test 4: Inhibition of cellular release of amyloid peptide 1-40; type: cell-based, Chinese hamster; conditions: Cricetulus griseus, CHO, 24 h, mean IC50, Test 4, CHO cells with human APP, read-out: Amyloid-β1-40 release IC50
Experimental: (§1) Test 4: Inhibition of Cellular Release of Amyloid Peptide 1-40
(§2) Chinese hamster ovary cells are transfected with the human gene for amyloid precursor protein. The cells are plated at a density of 8000 cells/well into 96-well microtiter plates and cultivated for 24 hours in DMEM cell culture medium containing 10% FCS. The test compound is added to the cells at various concentrations, and the cells are cultivated for 24 hours in the presence of the test compound. The supernatants are collected, and the concentration of amyloid peptide 1-40 is determined using state of the art immunoassay techniques, for example sandwich ELISA, homogenous time-resolved fluorescence (HTRF) immunoassay, or electro-chemiluminescence immunoassay.

[2] = Chemical stability of amorphous versus crystalline material exposed to high temperature/humidity for one week (UPLC purity, solid state); type: physicochemical
Experimental: Chemical stability of amorphous versus crystalline 5-cyano-3-methyl-pyridine-2-carboxylic acid [3-((3R,6R)-5-amino-3,6-dimethyl-6-trifluoromethyl-3,6-dihydro-2H-[1,4]oxazin-3-yl)-4-fluoro-phenyl]-amide when exposed to high temperature/humidity for one week
The stability of amorphous versus crystalline 5-cyano-3-methyl-pyridine-2-carboxylic acid [3-((3R,6R)-5-amino-3,6-dimethyl-6-trifluoromethyl-3,6-dihydro-2H-[1,4]oxazin-3-yl)-4-fluoro-phenyl]-amide was tested by exposing the amorphous or crystalline material to high temperature and/or humidity for one week. After storage at high temperature and/or humidity, bulk amorphous or crystalline material was sampled and dissolved in acetonitrile and the purity analysed in a Aquity UPLC from Waters using the following conditions: […]

[3] = system: amyloid peptide 1-40 release from Chinese hamster ovary cells transfected with the human gene for amyloid precursor protein; experiment: Test 4: Inhibition of cellular release of amyloid peptide 1-40; type: cell-based; conditions: mean IC50, Test 4, CHO cells with human APP, 24 hours; read-out: Amyloid-β1-40 release IC50
Experimental: as §1, §2

Row | SMILES | IC50 [1] [nM] | Purity-% ([2]; 50° C., one week, listed as Amorphous) [%] | Purity-% ([2]; 80° C., one week, listed as Amorphous) [%] | Purity-% ([2]; RT, 0 (start), listed as Amorphous) [%] | Purity-% ([2]; RT, one week) [%] | IC50 [3] [nM] | Purity-% ([2]; 40° C./75% RH, one week) [%] | Solid State ([2]; 40° C./75% RH, one week) | Solid State ([2]; 50° C., one week) | Purity-% ([2]; 50° C., one week, listed as Crystalline) [%] | Solid State ([2]; 80° C., one week, Low = lower peaks when measured by XRPD) | Purity-% ([2]; 80° C., one week, listed as Crystalline) [%] | Solid State ([2]; RT, 0 (start)) | Purity-% ([2]; RT, 0 (start), listed as Crystalline) [%]
1 | Cc1cc(C#N)cnc1C(=O)Nc1ccc(F)c([C@]2(C)CO[C@@](C)(C(F)(F)F)C(N)=N2)c1 [Example 1 Amorphous, 5-cyano-3-methyl-pyridine-2-carboxylic acid [3-((3R,6R)-5-amino-3,6-dimethyl-6-trifluoromethyl-3,6-dihydro-2H-[1,4]oxazin-3-yl)-4-fluoro-phenyl]-amide] | 2.6 | 91.6 | 55.8 | 96.4 | 96.3 | – | – | – | – | – | – | – | – | –
2 | Cc1cc(C#N)cnc1C(=O)Nc1ccc(F)c([C@]2(C)CO[C@@](C)(C(F)(F)F)C(N)=N2)c1 [Example 1 Crystalline, 5-cyano-3-methyl-pyridine-2-carboxylic acid [3-((3R,6R)-5-amino-3,6-dimethyl-6-trifluoromethyl-3,6-dihydro-2H-[1,4]oxazin-3-yl)-4-fluoro-phenyl]-amide] | – | – | – | – | – | 2 | 98.23 | Crystalline | Crystalline | 98.05 | Crystalline, | 98.01 | Crystalline | 98.7
